The values that follow come from patent US20170121344A1 (Siga Technologies, Inc., priority 2009, published 2017).

Usually EC50 stands for the concentration at which the effect is half-maximal.

Read-outs that look alike come from different tables or passages of the source.

The subject of experiment [1] is Dengue-2 (Strain New Guinea C). Put plainly: Viral yield assay against Dengue-2 in Vero cells. The experiment is classed as cell-based, Dengue virus. As to conditions: Dengue virus, read-out: Activity (EC50 in μM) DENV-2. The method, boiled down:
(§1)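 Virus yield, titered on Vero cells from cultures harvested at 48 h post infection, gave the EC50. Cultures were infected at MOI 0.1 with dengue-2 and treated with compound or DMSO at 37° C. DENV-1 and DENV-4 were determined similarly.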

For experiment [2], the system named is DENV-1. In words: Viral yield assay against DENV-1 in Vero cells. The experiment is classed as cell-based. As to conditions: Dengue virus, DENV1, viral yield assay. A digest of the protocol: as §1
For experiment [3], the system named is DENV-3. Put plainly: Viral yield assay against DENV-3 in Vero cells. Format: cell-based. The following applies: Dengue virus, DENV3, viral yield assay. A digest of the protocol:
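Infect Vero cells with virus (MOI 0.1), add compound or DMSO, incubate at 37° C, collect progeny at 48 hours post infection, then titrate on Vero cells to obtain EC50.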

The test system of experiment [4] is DENV-4. In words: Viral yield assay against DENV-4 in Vero cells. As to conditions: Dengue virus, DENV4, viral yield assay. Format: cell-based. The method, boiled down:
as §1

Where [5] appears, read: DENV2, viral yield assay, Vero cells, MOI 0.1, 48 hours post infection.

Regarding `Nc1c(C(=O)Nc2ccc(C(F)(F)F)cc2)sc2nc(-c3ccc4c(c3)OCO4)ccc12` [Compound 452, 3-amino-6-(1,3-benzodioxol-5-yl)-N-[4-(trifluoromethyl)phenyl]thieno[2,3-b] pyridine-2-carboxamide], the EC50 in experiment [1] (setting [5]), in experiment [2], in experiment [3] and in experiment [4] was less than 5 µM in each case.

`Nc1c(C(=O)Nc2cccc(C(F)(F)F)c2)sc2nc(-c3ccc4c(c3)OCO4)ccc12` [Compound 453, 3-amino-6-(1,3-benzodioxol-5-yl)-N-[3-(trifluoromethyl)phenyl]thieno[2,3-b] pyridine-2-carboxamide]: the concentration for a half-maximal effect (EC50) in experiment [1] (setting [5]), in experiment [2], in experiment [3] and in experiment [4] was less than 5 µM in each case.

Take `COc1ccc(-c2ccc3c(N)c(C(=O)Nc4cccc(Br)c4)sc3n2)cc1` [Compound 454, 3-amino-N-(3-bromophenyl)-6-(4-methoxyphenyl)thieno[2,3-b]pyridine-2-carboxamide]: the EC50 in experiment [1] (setting [5]), in experiment [2], in experiment [3] and in experiment [4] was less than 5 µM in each case.

Regarding `Nc1c(C(=O)Nc2ccc(C(F)(F)F)cc2)sc2nc(-c3ccc(F)cc3)ccc12` [Compound 455, 3-amino-6-(4-fluorophenyl)-N-[4-(trilfuoromethyl)phenyl]thieno[2,3-b] pyridine-2-carboxamide], the half-maximal effective concentration (EC50) is less than 5 µM in experiment [1] (setting [5]), less than 5 µM in experiment [2], less than 5 µM in experiment [3] and 5 to 25 µM in experiment [4].

Regarding `Cc1ccc(NC(=O)c2sc3nc(-c4cccs4)ccc3c2N)cc1F` [Compound 458, 3-amino-N-(3-fluoro-4-methyl-phenyl)-6-(2-thienyl)thieno [2,3-b]pyridine-2-carboxamide], the EC50 in experiment [1] (setting [5]), in experiment [2], in experiment [3] and in experiment [4] was less than 5 µM throughout.

As to `Nc1c(C(=O)Nc2ccc(C(F)(F)F)cc2)sc2nc(-c3cccs3)ccc12` [Compound 459, 3-amino-6-(2-thienyl)-N-[4-(trifluoromethyl)phenyl]thieno[2,3-b] pyridine-2-carboxamide], the concentration for a half-maximal effect (EC50) in experiment [1] (setting [5]), in experiment [2], in experiment [3] and in experiment [4] was less than 5 µM throughout.

On to `Nc1c(C(=O)Nc2ccc(F)c(F)c2)sc2nc(-c3cccs3)ccc12` [Compound 461, 3-amino-N-(3,4-difluorophenyl)-6-(2-thienyl)thieno[2,3-b]pyridine-2-carboxamide], for which the 50% effective concentration (EC50) in experiment [1] (setting [5]), in experiment [2], in experiment [3] and in experiment [4] was less than 5 µM throughout.

For `Nc1c(C(=O)Nc2ccccc2Br)sc2nc(-c3cccs3)ccc12` [Compound 462, 3-amino-N-(2-bromophenyl)-6-(2-thienyl)thieno[2,3-b]pyridine-2-carboxamide], the EC50 in experiment [1] (setting [5]), in experiment [2], in experiment [3] and in experiment [4] was less than 5 µM in each case.

Consider `Nc1c(C(=O)Nc2cccc(F)c2)sc2nc(-c3cccs3)ccc12` [Compound 464, 3-amino-N-(3-fluorophenyl)-6-(2-thienyl)thieno[2,3-b]pyridine-2-carboxamide], for which the EC50 in experiment [1] (setting [5]), in experiment [2], in experiment [3] and in experiment [4] was less than 5 µM throughout.

Take `Nc1c(C(=O)Nc2ccc(C(F)(F)F)cc2)sc2nc(-c3ccncc3)ccc12` [Compound 465, 3-amino-6-(4-pyridyl)-N-[4-(trifluoromethyl)phenyl]thieno[2,3-b] pyridine-2-carboxamide]: the EC50 in experiment [1] (setting [5]), in experiment [2], in experiment [3] and in experiment [4] was less than 5 µM throughout.

`COc1ccc(-c2ccc3c(N)c(C(=O)Nc4ccccc4Br)sc3n2)cc1` [Compound 468, 3-amino-N-(2-bromophenyl)-6-(4-methoxyphenyl)thieno[2,3-b]pyridine-2-carboxamide]: the half-maximal effective concentration (EC50) in experiment [1] (setting [5]), in experiment [2], in experiment [3] and in experiment [4] was less than 5 µM throughout.

As to `COc1ccc(-c2ccc3c(N)c(C(=O)Nc4ccc(Br)cc4)sc3n2)cc1` [Compound 469, 3-amino-N-(4-bromophenyl)-6-(4-methoxyphenyl)thieno[2,3-b]pyridine-2-carboxamide], the EC50 in experiment [1] (setting [5]), in experiment [2], in experiment [3] and in experiment [4] was less than 5 µM in each case.

Regarding `Nc1c(C(=O)Nc2cc(F)ccc2F)sc2nc(-c3cccs3)ccc12` [Compound 470, 3-amino-N-(2,5-difluorophenyl)-6-(2-thienyl)thieno[2,3-b]pyridine-2-carboxamide], the EC50 in experiment [1] (DENV2, Vero, 48 h) is less than 5 µM; in experiment [2], less than 5 µM; in experiment [3], less than 5 µM; in experiment [4], less than 5 µM.

As to `Nc1c(C(=O)Nc2ccc(F)cc2F)sc2nc(-c3cccs3)ccc12` [Compound 471, 3-amino-N-(2,4-difluorophenyl)-6-(2-thienyl)thieno[2,3-b]pyridine-2-carboxamide], the concentration for a half-maximal effect (EC50) in experiment [1] (setting [5]), in experiment [2], in experiment [3] and in experiment [4] was less than 5 µM each time.

`COc1ccc(-c2ccc3c(N)c(C(=O)Nc4cccc(C(F)(F)F)c4)sc3n2)cc1` [Compound 472, 3-amino-6-(4-methoxyphenyl)-N-[3-(trifluoromethyl)phenyl]thieno[2,3-b] pyridine-2-carboxamide]: the 50% effective concentration (EC50) in experiment [1] (setting [5]), in experiment [2], in experiment [3] and in experiment [4] was less than 5 µM each time.

On to `COc1cc(NC(=O)c2sc3nc(-c4cccs4)ccc3c2N)cc(OC)c1OC` [Compound 473, 3-amino-6-(2-thienyl)-N-(3,4,5-trimethoxyphenyl)thieno[2,3-b]pyridine-2-carboxamide], for which the EC50 in experiment [1] (DENV2, Vero, 48 h) was less than 5 µM; in experiment [2] it was less than 5 µM; in experiment [3] it was less than 5 µM; in experiment [4], less than 5 µM.

Regarding `COc1ccc(-c2ccc3c(N)c(C(=O)Nc4ccc(C(F)(F)F)cc4)sc3n2)cc1OC` [Compound 475, 3-amino-6-(3,4-dimethoxyphenyl)-N-[4-(trifluoromethyl)phenyl]thieno[2,3-b] pyridine-2-carboxamide], the concentration giving a half-maximal response (EC50) in experiment [1] (setting [5]), in experiment [2], in experiment [3] and in experiment [4] was less than 5 µM throughout.

In the case of `COc1ccc(-c2ccc3c(N)c(C(=O)Nc4cccc(C(F)(F)F)c4)sc3n2)cc1OC` [Compound 476, 3-amino-6-(3,4-dimethoxyphenyl)-N-[3-(trifluoromethyl)phenyl]thieno[2,3-b] pyridine-2-carboxamide], the EC50 in experiment [1] (setting [5]), in experiment [2], in experiment [3] and in experiment [4] was less than 5 µM each time.

Regarding `COC(OC)c1ccc2c(N)c(C(=O)Nc3ccc(C(F)(F)F)cc3)sc2n1` [Compound 482, 3-amino-6-(dimethoxymethyl)-N-[4-(trifluoromethyl)phenyl]thieno[2,3-b] pyridine-2-carboxamide], the EC50 in experiment [1] (setting [5]), in experiment [2], in experiment [3] and in experiment [4] was less than 5 µM throughout.

For `CC(=O)c1ccc2c(N)c(C(=O)Nc3ccc(C(F)(F)F)cc3)sc2n1` [Compound 483, 6-acetyl-3-amino-N-[4-(trifluoromethyl)phenyl]thieno[2,3-b] pyridine-2-carboxamide], the concentration for a half-maximal effect (EC50) in experiment [1] (setting [5]), in experiment [2], in experiment [3] and in experiment [4] was less than 5 µM throughout.

Regarding `Cc1ccc(-c2ccc3c(N)c(C(=O)Nc4ccc(Br)cc4)sc3n2)cc1` [Compound 485, 3-amino-N-(4-bromophenyl)-6-(p-tolyl) thieno[2,3-b]pyridine-2-carboxamide], the concentration giving a half-maximal response (EC50) in experiment [1] (setting [5]), in experiment [2], in experiment [3] and in experiment [4] was less than 5 µM each time.

For `Nc1c(C(=O)/N=c2\[nH]c3ccccc3s2)sc2nc(-c3cccs3)ccc12` [Compound 486, (NE)-3-amino-N-(3H-1,3-benzo-thiazol-2-ylidene)-6-(2-thienyl)thieno [2,3-b]pyridine-2-carboxamide], the EC50 was less than 5 µM in experiment [1] (DENV2, Vero, 48 h); less than 5 µM in experiment [2]; less than 5 µM in experiment [3]; less than 5 µM in experiment [4].

Consider `Nc1c(C(=O)Nc2nnc(-c3ccccc3)s2)sc2nc(-c3cccs3)ccc12` [Compound 488, 3-amino-N-(5-phenyl-1,3,4-thiadiazol-2-yl)-6-(2-thienyl)thieno[2,3-b]pyridine-2-carboxamide], for which the EC50 in experiment [1] (setting [5]), in experiment [2], in experiment [3] and in experiment [4] was less than 5 µM throughout.

In the case of `Nc1c(C(=O)Nc2cccc(F)c2)sc2nc(-c3ccc(F)cc3)ccc12` [Compound 489, 3-amino-N-(3-fluroophenyl)-6-(4-fluroophenyl)thieno[2,3-b]pyridine-2-carboxamide], the concentration giving a half-maximal response (EC50) in experiment [1] (setting [5]), in experiment [2], in experiment [3] and in experiment [4] was less than 5 µM throughout.

Regarding `Nc1c(C(=O)Nc2ccc(F)cc2)sc2nc(-c3ccc(F)cc3)ccc12` [Compound 490, 3-amino-N,6-bis(4-fluorophenyl) thieno[2,3-b]pyridine-2-carboxamide], the concentration for a half-maximal effect (EC50) in experiment [1] (setting [5]) was less than 5 µM; in experiment [2], less than 5 µM; in experiment [3], 5 to 25 µM; in experiment [4] it was less than 5 µM.
